{"source": "patent EP2508526A1", "about": "“Spiroalkene carboxamide derivatives and their use as chemokine receptor modulators” (Ares Trading SA, priority 2011, dated 2012)", "biological_target": "T1, hCCR2b (Homo sapiens, UniProt P41597)", "T1 sequence (P41597 1-360 isoform P41597-2)": "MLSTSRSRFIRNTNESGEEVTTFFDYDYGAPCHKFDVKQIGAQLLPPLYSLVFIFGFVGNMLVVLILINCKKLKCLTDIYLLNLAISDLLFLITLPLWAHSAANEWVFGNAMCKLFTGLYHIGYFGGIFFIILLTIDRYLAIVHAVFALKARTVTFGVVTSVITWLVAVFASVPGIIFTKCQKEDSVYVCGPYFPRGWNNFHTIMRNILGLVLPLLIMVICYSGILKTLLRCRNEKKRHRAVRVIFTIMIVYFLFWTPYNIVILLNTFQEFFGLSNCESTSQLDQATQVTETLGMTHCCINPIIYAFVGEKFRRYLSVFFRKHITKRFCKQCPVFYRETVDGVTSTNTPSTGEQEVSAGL", "experiment": "CCR2 binding assay ([125I]MCP-1, SPA, CHO cell membranes)", "parameters": "expressed in transfected cells; host or cells: CHO cells (membrane preparation)", "details": "membranes from CHO cells expressing hCCR2b, 50 pM [125I]MCP-1; read-out: Binding hCCR2 (Ki)", "method": "Membranes were prepared from CHO cells expressing mCCR2b or hCCR2b for use in ligand binding studies. Cells were suspended in 50mM Tris-HCL, pH 7.4, 2 mM EDTA, 250 mM Sucrose and 1x Complete EDTA-free protease inhibitor cocktail (Roche) (Buffer A), and disrupted at 4°C by N2 decompression using a cell disruption bomb (Parr Instrument). Following centrifugation at 200 RCF for 10 min at 4°C, the supernatant was suspended in buffer A and centrifuged again at 19000 RPM (RCSC rotor SS34 code 05 Sorvall Instruments DUPONT) for 90 min at 4°C. The pellet was then suspended in 10 mM HEPES, pH 7.4, 1 mM EDTA, 250 mM Sucrose, and 1x Complete EDTA-free protease inhibitor cocktail (Buffer B) and homogenized using a potter. Membranes were flash frozen in liquid N2 and stored at -80°C. [125I] Monocyte Chemoattractant Protein -1 (MCP-1) (25µCi; Perkin Elmer) was added to test compounds in DMSO (1% final). Membranes and WGA SPA beads (GE Healthcare) were added to give a final volume of 100 µl in 96-well plates with assay concentrations of 50 pM or 100 pM [125I]Monocyte Chemoattractant Protein -1 (respectively for hCCR2b or mCCR2b), 50 mM HEPES, pH 7.4, 5 mM MgCl2, 1 mM CaCl2, 0.1% BSA, 1-5 µg/well of membranes and 100 µg/well of WGA SPA beads. Binding was performed for 90 min at RT with strong agitation of speed 5 (Heidolph Titramax 100 SCITEC) and bound radioactivity was measured on a PerkinElmer 1450 MicroBeta counter. Specific binding was calculated by subtracting remaining radioactivity in the presence of 1000-fold excess of unlabeled compound. Binding data were analyzed using the Genedata Screener® software.", "note": "Counter-ions that a name gives are not always drawn.", "data": [{"compound": "CCN1CCC2(CC1)OC(=O)C(C)=C2C(=O)N1C[C@@H]2C[C@H]1CN2c1nccc(C(F)(F)F)n1", "note": "[Compound 72, 8-ethyl-3-methyl-4-({(1S,4S)-5-[4-(trifluoromethyl)pyrimidin-2-yl]-2.5-diazabicyclo[2.2.1]hept-2-yl}carbonyl)-1-oxa-8-azaspiro[4.5]dec-3-en-2-one]", "values": [{"measurement": "Ki", "result": "< 50", "unit": "nM"}]}, {"compound": "CCN1CCC2(CC1)OC(=O)C(C)=C2C(=O)N1CCCN(c2ccc(C(F)(F)F)cc2)CC1", "note": "[Compound 91, 8-ethyl-3-methyl-4-({4-[4-(trifluoromethyl)phenyl]-1,4-diazepan-1-yl}carbonyl)-1-oxa-8-azaspiro[4.5]dec-3-en-2-one]", "values": [{"measurement": "Ki", "result": "100 to 500", "unit": "nM"}]}, {"compound": "CC1=C(C(=O)N2CCN(c3cccc(C(F)(F)F)c3)CC2)C2(CCN(C(C)C)CC2)OC1=O", "note": "[Compound 101, 8-isopropyl-3-methyl-4-({4-[3-(trifluoromethyl)phenyl]piperazin-1-yl}carbonyl)-1-oxa-8-azaspiro[4.5]dec-3-en-2-one]", "values": [{"measurement": "Ki", "result": "< 50", "unit": "nM"}]}, {"compound": "CCN1CCC2(CC1)OC(=O)C(C)=C2C(=O)NCCCc1cccc(C(F)(F)F)c1", "note": "[Compound 92, 8-ethyl-3-methyl-2-oxo-N-{3-[3-(trifluoromethyl)phenyl]propyl}-1-oxa-8-azaspiro[4.5]dec-3-ene-4-carboxamide]", "values": [{"measurement": "Ki", "result": "100 to 500", "unit": "nM"}]}, {"compound": "COc1ccc(CCN2CCC3(CC2)OC(=O)C(C)=C3C(=O)N2CCN(c3cccc(C(F)(F)F)c3)CC2)cc1", "note": "[Example 6, 8-[2-(4-methoxyphenyl)ethyl]-3-methyl-4-({4-[3-(trifluoromethyl)phenyl]piperazin-1-yl]carbonyl)-1-oxa-8-azaspiro[4.5]dec-3-en-2-one, dihydrochloride salt]", "values": [{"measurement": "Ki", "result": "< 50", "unit": "nM"}]}, {"compound": "CCN1CCC2(CC1)OC(=O)C(C)=C2C(=O)N1CCN(c2cc(C(F)(F)F)ccc2C)CC1", "note": "[Compound 96, 8-ethyl-3-methyl-4-({4-[2-methyl-5-(trifluoromethyl)phenyl]piperazin-1-yl}carbonyl)-1-oxa-8-azaspiro[4.5]dec-3-en-2-one]", "values": [{"measurement": "Ki", "result": "500 to 2000", "unit": "nM"}]}, {"compound": "COCCCN1CCC2(CC1)OC(=O)C(C)=C2C(=O)N1CCN(c2cccc(C(F)(F)F)c2)CC1", "note": "[Example 2, 8-(3-methoxypropyl)-3-methyl-4-({4-[3-(trifluoromethyl)phenyl]piperazin-1-yl}carbonyl)-1-oxa-8-azaspiro[4.5]dec-3-en-2-one]", "values": [{"measurement": "Ki", "result": "< 50", "unit": "nM"}]}, {"compound": "COCCN1CCC2(CC1)OC(=O)C(C)=C2C(=O)N1CCc2ccc(C(F)(F)F)cc2C1", "note": "[Compound 16, 8-(2-methoxyethyl)-3-methyl-4-{[7-(trifluoromethyl)-3,4-dihydroisoquinolin-2(1H)-yl]carbonyl}-1-oxa-8-azaspiro[4.5]dec-3-en-2-one]", "values": [{"measurement": "Ki", "result": "< 50", "unit": "nM"}]}, {"compound": "CCN1CCC2(CC1)OC(=O)C(C)=C2C(=O)N1CCN(c2cc(C(F)(F)F)ccc2OC)CC1", "note": "[Compound 95, 8-ethyl-4-({4-[2-methoxy-5-(trifluoromethyl)phenyl]piperazin-1-yl}carbonyl)-3-methyl-1-oxa-8-azaspiro[4.5]dec-3-en-2-one]", "values": [{"measurement": "Ki", "result": "500 to 2000", "unit": "nM"}]}, {"compound": "CC1=C(C(=O)N2CCN(c3cccc(Cl)c3)CC2)C2(CCN(Cc3ccccc3)CC2)OC1=O", "note": "[Compound 110, 8-benzyl-4-{[4-(3-chlorophenyl)piperazin-1-yl]carbonyl}-3-methyl-1-oxa-8-azaspiro[4.5]dec-3-en-2-one]", "values": [{"measurement": "Ki", "result": "500 to 2000", "unit": "nM"}]}, {"compound": "CCN1CCC2(CC1)OC(=O)C(C)=C2C(=O)N1CCN(c2ccc(C(F)(F)F)cc2)CC1", "note": "[Compound 113, 8-ethyl-3-methyl-4-({4-[4-(trifluoromethyl)phenyl]piperazin-1-yl}carbonyl)-1-oxa-8-azaspiro[4.5]dec-3-en-2-one]", "values": [{"measurement": "Ki", "result": "500 to 2000", "unit": "nM"}]}, {"compound": "CC1=C(C(=O)N2CCc3ncc(C(F)(F)F)cc3C2)C2(CCN(C(C)C)CC2)OC1=O", "note": "[Compound 115, 8-isopropyl-3-methyl-4-{[3-(trifluoromethyl)-7,8-dihydro-1,6-naphthyridin-6(5H)-yl]carbonyl}-1-oxa-8-azaspiro[4.5]dec-3-en-2-one]", "values": [{"measurement": "Ki", "result": "< 50", "unit": "nM"}]}, {"compound": "CC1=C(C(=O)NCc2ccc(C(F)(F)F)cc2)C2(CCN(C(C)C)CC2)OC1=O", "note": "[Compound 64, 8-isopropyl-3-methyl-2-oxo-N-[4-(trifluoromethyl)benzyl]-1-oxa-8-azaspiro[4.5]dec-3-ene-4-carboxamide]", "values": [{"measurement": "Ki", "result": "500 to 2000", "unit": "nM"}]}, {"compound": "CC1=C(C(=O)N2CCc3ccc(C(F)(F)F)cc3C2)C2(CCN(C)CC2)OC1=O", "note": "[Compound 27, 3,8-dimethyl-4-{[7-(trifluoromethyl)-3,4-dihydroisoquinolin-2(1H)-yl]carbonyl}-1-oxa-8-azaspiro[4.5]dec-3-en-2-one]", "values": [{"measurement": "Ki", "result": "< 50", "unit": "nM"}]}, {"compound": "CCN1CCC2(CC1)OC(=O)C(C)=C2C(=O)N1CCCN(c2cccc(F)c2)CC1", "note": "[Compound 52, 8-ethyl-4-{[4-(3-fluorophenyl)-1,4-diazepan-1-yl]carbonyl}-3-methyl-1-oxa-8-azaspiro[4.5]dec-3-en-2-one]", "values": [{"measurement": "Ki", "result": "500 to 2000", "unit": "nM"}]}, {"compound": "CC1=C(C(=O)N2CCc3ncc(C(F)(F)F)cc3C2)C2(CCN(C3CCC(O)CC3)CC2)OC1=O", "note": "(stereo not shown) [Compound 45, 8-(4-hydroxycyclohexyl)-3-methyl-4-{[3-(trifluoromethyl)-7,8-dihydro-1,6-naphthyridin-6(5H)-yl]carbonyl}-1-oxa-8-azaspiro[4.5]dec-3-en-2-one]", "values": [{"measurement": "Ki", "result": "< 50", "unit": "nM"}]}, {"compound": "CCN1CCC2(CC1)OC(=O)C(C)=C2C(=O)N1CCCN(c2cccc(C(F)(F)F)c2)CC1", "note": "[Compound 90, 8-ethyl-3-methyl-4-({4-[3-(trifluoromethyl)phenyl]-1,4-diazepan-1-yl}carbonyl)-1-oxa-8-azaspiro[4.5]dec-3-en-2-one]", "values": [{"measurement": "Ki", "result": "50 to 100", "unit": "nM"}]}, {"compound": "CC1=C(C(=O)NCC(=O)Nc2cccc(C(F)(F)F)c2)C2(CCN(C3CCOCC3)CC2)OC1=O", "note": "[Compound 69, 3-methyl-2-oxo-N-(2-oxo-2-{[3-(trifluoromethyl)phenyl]amino}ethyl)-8-(tetrahydro-2H-pyran-4-yl)-1-oxa-8-azaspiro[4.5]dec-3-ene-4-carboxamide]", "values": [{"measurement": "Ki", "result": "< 50", "unit": "nM"}]}, {"compound": "CC1=C(C(=O)N2CCc3ncc(C(F)(F)F)cc3C2)C2(CCN(CC3CCOC3)CC2)OC1=O", "note": "(stereo not shown) [Compound 46, 3-methyl-8-(tetrahydrofuran-3-ylmethyl)-4-{[3-(trifluoromethyl)-7,8-dihydro-1,6-naphthyridin-6(5H)-yl]carbonyl}-1-oxa-8-azaspiro[4.5]dec-3-en-2-one]", "values": [{"measurement": "Ki", "result": "< 50", "unit": "nM"}]}, {"compound": "CC1=C(C(=O)N2CCc3ncc(C(F)(F)F)cc3C2)C2(CCNCC2)OC1=O", "note": "[Compound 78, 3-methyl-4-{[3-(trifluoromethyl)-7,8-dihydro-1,6-naphthyridin-6(5H)-yl]carbonyl}-1-oxa-8-azaspiro[4.5]dec-3-en-2-one, hydrocloride salt]", "values": [{"measurement": "Ki", "result": "100 to 500", "unit": "nM"}]}, {"compound": "CC1=C(C(=O)N2CCN(c3cccc(C(F)(F)F)c3)CC2)C2(CCN(CC(C)C)CC2)OC1=O", "note": "[Compound 103, 8-isobutyl-3-methyl-4-({4-[3-(trifluoromethyl)phenyl]piperazin-1-yl}carbonyl)-1-oxa-8-azaspiro[4.5]dec-3-en-2-one]", "values": [{"measurement": "Ki", "result": "< 50", "unit": "nM"}]}, {"compound": "CCN1CCC2(CC1)OC(=O)C(C)=C2C(=O)N1C[C@@H]2C[C@H]1CN2c1cc(C(F)(F)F)ccn1", "note": "[Compound 71, 8-ethyl-3-methyl-4-({(1S,4S)-5-[4-(trifluoromethyl)pyridin-2-yl]-2,5-diazabicyclo[2.2.1]hept-2-yl}carbonyl)-1-oxa-8-azaspiro[4.5]dec-3-en-2-one]", "values": [{"measurement": "Ki", "result": "< 50", "unit": "nM"}]}, {"compound": "CCN1CCC2(CC1)OC(=O)C(C)=C2C(=O)N1CCc2ncc(C(F)(F)F)cc2C1", "note": "[Compound 85, 8-ethyl-3-methyl-4-{[3-(trifluoromethyl)-7,8-dihydro-1,6-naphthyridin-6(5H)-yl]carbonyl}-1-oxa-8-azaspiro[4.5]dec-3-en-2-one]", "values": [{"measurement": "Ki", "result": "< 50", "unit": "nM"}]}, {"compound": "CC1=C(C(=O)N2CCN(c3cccc(C(F)(F)F)c3)CC2)C2(CCN(CC(=O)O)CC2)OC1=O", "note": "[Compound 9, [3-methyl-2-oxo-4-({4-[3-(trifluoromethyl)phenyl]piperazin-1-yl}carbonyl)-1-oxa-8-azaspiro[4.5]dec-3-en-8-yl]acetic acid]", "values": [{"measurement": "Ki", "result": "100 to 500", "unit": "nM"}]}, {"compound": "CC1=C(C(=O)N2CCc3ncc(C(F)(F)F)cc3C2)C2(CCN(C3CCOCC3)CC2)OC1=O", "note": "[Compound 119, 3-methyl-8-(tetrahydro-2H-pyran-4-yl)-4-{[3-(trifluoromethyl)-7,8-dihydro-1,6-naphthyridin-6(5H)-yl]carbonyl}-1-oxa-8-azaspiro[4.5]dec-3-en-2-one]", "values": [{"measurement": "Ki", "result": "< 50", "unit": "nM"}]}]}
